In experiment [1] the target is T1, PKCα (Homo sapiens, UniProt P17252).
T1 construct: Jurkat cell was used for bryostatin 1; endogenous in cells; host or cells: Jurkat clone E6-1
Put plainly: Translocation of PKCα between soluble and insoluble fraction (western blot). Format: cell-based. As to conditions: lysis buffer without a mild detergent.

For experiment [2], the target named is T1, PKCα. The experiment can be described thus: CETSA and isothermal dose-response, PKCα. In kind it is cell-based. As to conditions: Jurkat cells, 48° C.
Experimental: HEK293T cells were harvested with trypsin/EDTA solution and resuspended in a conical tube before compound treatment. […] After the compound treatment, cells were aliquoted, heated to a range of temperature for 3 min, and cooled to 25° C. for 3 min. The heated cells were harvested, washed with PBS, and resuspended with lysis buffer (PBS supplemented with protease inhibitor cocktail). The cell suspension was freeze-thawed three times with liquid nitrogen for cell lysis. Soluble fraction was separated from the cell lysate following centrifugation at 20,000 g for 20 min at 4° C. Procedures for isothermal dose-response (ITDR) analysis was identical with the above-mentioned procedures except that cells were treated with various compound concentrations and heated at a fixed temperature.
Western blot—The soluble fraction was mixed with 5×Laemmli buffer followed by heating at 95° C. for 5 min. Proteins were separated by SDS-PAGE and transferred to PVDF membranes. […] The membranes were developed with Amersham ECL prime western blotting detection reagent [GE Healthcare], and detected by ChemiDoc [Bio-Rad]. The relative band intensities to 37° C. was calculated within each of drug-treated group and control group each for the CETSA curves. For ITDR curves, the relative band intensities to DMSO group was calculated. […]
Another experiment addresses T2, protein SET (SET) (Homo sapiens, UniProt Q01105).
T2 construct: hordenine with HEK293T cells at 20 μM for 3 h; endogenous in cells; host or cells: HEK293T
The experiment can be described thus: CETSA, SET. Format: cell-based. The settings on record: HEK293T cells. As to the method: (§1) Western blot—The soluble fraction was mixed with 5×Laemmli buffer followed by heating at 95° C. for 5 min. Proteins were separated by SDS-PAGE and transferred to PVDF membranes. The membranes were in tris-buffered saline with Tween-20 (TBST) including 2% BSA for 1 h at 4° C., and incubated with primary antibodies (anti-DHFR [ab133546, abcam], anti-TYMS [3766, Cell signaling], anti-PKCα [2056, Cell signaling], anti-PKCβI [ab195039, abcam], anti-PKCβII [ab32026, abcam], anti-PKCγ [402 ab131222, abcam], anti-PKCδ [9616, Cell signaling], anti-PKCε [ab124806, abcam], anti-PKCμ [2052, Cell signaling], anti-PKCθ [ab110728, abcam], anti-PKCζ [9368, Cell signaling], anti-NPM [ab52644, abcam], anti-RPSA [ab133645, abcam], anti-SET [ab176567, abcam], anti-EEF1D [ab88868, abcam], anti-GAPDH [2118, Cell signaling], and anti-β-tubulin [2146, Cell signaling])) overnight. The membrane was then washed with TBST and incubated with secondary antibodies (anti-rabbit IgG, HRP linked [7074, Cell signaling]) for 1 h at room temperature. The membranes were developed with Amersham ECL prime western blotting detection reagent [GE Healthcare], and detected by ChemiDoc [Bio-Rad]. The relative band intensities to 37° C. was calculated within each of drug-treated group and control group each for the CETSA curves. For ITDR curves, the relative band intensities to DMSO group was calculated.

Experiment [3] has as its target T3, 40S ribosomal protein SA (RPSA) (Homo sapiens, UniProt P08865).
T3 construct: hordenine with HEK293T cells at 20 μM for 3 h; endogenous in cells; host or cells: HEK293T
Put plainly: CETSA, RPSA. In kind it is cell-based. The settings on record: HEK293T cells. As to the method: as §1

In experiment [4] the target is T4, elongation factor 1-delta (EEF1D) (Homo sapiens, UniProt P29692).
T4 construct: hordenine with HEK293T cells at 20 μM for 3 h; endogenous in cells; host or cells: HEK293T
T4 sequence (P29692 1-281): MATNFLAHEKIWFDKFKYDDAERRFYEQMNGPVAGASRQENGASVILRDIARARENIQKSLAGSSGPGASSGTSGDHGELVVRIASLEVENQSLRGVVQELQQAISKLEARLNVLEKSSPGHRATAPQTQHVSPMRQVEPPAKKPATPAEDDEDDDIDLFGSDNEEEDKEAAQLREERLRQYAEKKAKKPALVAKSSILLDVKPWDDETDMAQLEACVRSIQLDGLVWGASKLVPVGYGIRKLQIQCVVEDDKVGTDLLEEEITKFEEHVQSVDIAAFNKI
Put plainly: CETSA, EEF1D. Format: cell-based. As to conditions: HEK293T cells. As to the method:
as §1

Another experiment has as its target T5, NPM (Oryctolagus cuniculus, UniProt G1T0N4).
T5 construct: incubated with the in vitro translation system to scavenge NPM; tissue Promega; host or cells: TNT Quick Master Mix (reticulocyte lysate, own knowledge)
Put plainly: Nucleophosmin depletion for functional validation (in vitro translation). In kind it is biochemical. As to conditions: 10 μM of hordenine, 30° C. for 1 h. As to the method: (§2) In vitro protein translation—TNT quick coupled transcription/translation system [Promega] was used for in vitro translation. TNT Quick Master Mix and T7 luciferase control DNA were mixed according to the manufacturer's protocol, and incubated with compounds at 30° C. for 1 h. After the addition of Luciferase assay reagent [Promega], luminescence from the control luciferase product was read by Synergy HT [BioTek] to measure the effect of compounds on protein translation.
Nucleophosmin depletion for functional validation—Protein G sepharose beads [Sigma] were washed with PBS and incubated with anti-NPM antibody at 4° C. for 2 h. Unbound antibodies were washed away. The anti-NPM bound Protein G beads were mixed with TNT Quick Master Mix and incubated at 4° C. for 2 h. The beads were removed by centrifugation, and the supernatant was incubated with T7 luciferase control DNA and 10 μM of hordenine at 30° C. for 1 h. Luminescence was read after the addition of Luciferase assay reagent.

The target in the next experiment is T6, nucleophosmin (NPM) (Homo sapiens, UniProt P06748).
T6 construct: hordenine with HEK293T cells at 20 μM for 3 h; endogenous in cells; host or cells: HEK293T
T6 sequence (P06748 whole entry): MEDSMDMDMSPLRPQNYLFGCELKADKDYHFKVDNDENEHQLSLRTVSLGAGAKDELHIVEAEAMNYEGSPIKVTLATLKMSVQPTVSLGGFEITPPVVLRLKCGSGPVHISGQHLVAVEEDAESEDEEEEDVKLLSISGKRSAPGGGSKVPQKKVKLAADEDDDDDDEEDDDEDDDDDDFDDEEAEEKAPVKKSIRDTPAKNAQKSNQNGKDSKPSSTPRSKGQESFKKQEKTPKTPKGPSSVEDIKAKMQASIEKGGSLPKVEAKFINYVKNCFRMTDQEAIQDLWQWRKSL
The experiment can be described thus: CETSA and isothermal dose-response, NPM. Format: cell-based. The settings on record: HEK293T cells, compared to β-tubulin and GAPDH. As to the method: as §1

Experiment [5] relates to translation of the luciferase reporter gene. Put plainly: In vitro protein translation (luciferase reporter). The settings on record: 30° C. for 1 h. In kind it is biochemical. On the procedure: as §2
In general terms: Reporter assays use an easily measured gene product as a stand-in for the process of interest.

T2 sequence (Q01105 whole entry): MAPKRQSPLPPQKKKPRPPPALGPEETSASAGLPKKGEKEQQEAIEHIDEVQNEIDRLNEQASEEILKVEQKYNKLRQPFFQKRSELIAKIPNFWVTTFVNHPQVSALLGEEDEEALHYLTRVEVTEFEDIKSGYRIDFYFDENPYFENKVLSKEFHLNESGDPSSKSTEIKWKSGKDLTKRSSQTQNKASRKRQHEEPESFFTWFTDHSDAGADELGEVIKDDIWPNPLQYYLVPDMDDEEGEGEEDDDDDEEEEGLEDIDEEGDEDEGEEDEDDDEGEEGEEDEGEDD
T5 sequence (G1T0N4 1-294): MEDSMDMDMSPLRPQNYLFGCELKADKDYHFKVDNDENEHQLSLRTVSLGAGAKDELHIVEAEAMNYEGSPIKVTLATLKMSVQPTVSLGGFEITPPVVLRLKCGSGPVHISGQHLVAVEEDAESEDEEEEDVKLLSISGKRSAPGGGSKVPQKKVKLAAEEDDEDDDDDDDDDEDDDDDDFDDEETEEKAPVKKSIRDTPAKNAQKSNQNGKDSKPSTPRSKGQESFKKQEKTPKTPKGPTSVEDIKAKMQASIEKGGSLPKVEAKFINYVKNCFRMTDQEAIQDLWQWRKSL

Turning to `CCC/C=C/C=C/C(=O)O[C@H]1/C(=C/C(=O)OC)C[C@H]2C[C@H]([C@@H](C)O)OC(=O)C[C@H](O)C[C@@H]3C[C@H](OC(C)=O)C(C)(C)[C@](O)(C[C@@H]4C/C(=C/C(=O)OC)C[C@H](/C=C/C(C)(C)[C@]1(O)O2)O4)O3` [bryostatin 1], at PKCα [1], the “location of PKCα (soluble / insoluble fraction)” value is recorded as “moved to insoluble fraction”. For the same molecule, the “isothermal dose-response of PKCα” value at PKCα [2] was “dose-dependent thermal destabilization”.

On to `CN(C)CCc1ccc(O)cc1` [hordenine, N,N-dimethyltyramine], for which the “thermal stability shift of SET (CETSA)” value at protein SET (SET) is given as “did not”. Further, in experiment [3], the “thermal stability shift of RPSA (CETSA)” value is listed as “did not”. Moreover, the “thermal stability shift of EEF1D (CETSA)” value in experiment [4] was “did not”. In addition, the “upregulating efficacy on luciferase gene translation diminished after NPM depletion” value on NPM is recorded as 72.7%. Also, the “thermal stability shift of NPM (CETSA)” value at nucleophosmin (NPM) is “significant thermal stabilization”. Also, the “effect on translation of the luciferase reporter gene” value in experiment [5] was “increase the translation”.

Values taken from patent publication US11105813B2, “Method for target protein identification using thermal stability shift-based fluorescence difference in two-dimensional gel electrophoresis” (priority 2016, dated 2021).
